Source: patent US9937151B2, “Carbapenem antibacterials with gram-negative activity” (priority 2010, dated 2018)

Test system: G(−) bacterial strains
Assay: Dilution antimicrobial susceptibility tests (MIC, NCCLS agar dilution / broth dilution)
Format: cell-based, Gram-negative organisms
Conditions: unit assumed
Description: The MIC (minimum inhibitory concentration) was determined by the NCCLS (National Committee for Clinical Laboratory Standards) methods 2000. Methods for dilution antimicrobial susceptibility testing for bacteria that growth aerobically (M7-A5, vol. 20, No. 2). The agar dilution method for determining antimicrobial susceptibility was carried out using Mueller-Hinton agar. A final inoculum of 10^4 CFU/spot was applied with an inoculation device. Broth dilution tests were performed with 5×10^5 CFU/well in 96 well plates. The susceptibilities of streptococci were determined by Mueller-Hinton agar supplemented with 5% sheep blood. All assays were run with the indicated control strains, available from the ATCC (American Type Culture Collection, Rockville, Md.).
Abbreviations used in Table 1 are defined as follows: Cf-R: Ceftazidime Resistance, Ci-R: Ciprofloxacin Resistance, Gen-R: Gentamycin Resistance, Imp-R: Imipenem Resistance, Mp-R: Meropenem Resistance, Ofx-R: Ofloxacin Resistance, B+: β-lactamase Production, AmpC: AmpC-lactamase Hyper production, CBPase: Carbapenemase Production.

[1] = strain #1 Acinetobacter calcoaceticus
[2] = strain #2 Acinetobacter baumannii, Cf-R, Ci-R
[3] = strain #3 Acinetobacter baumannii, Cf-R, Ci-R, Mp-I
[4] = strain #4 Acinetobacter baumannii, Cf-R, Imp-I, CBPase
[5] = strain #7 Enterobacter aerogenes
[6] = strain #8 Enterobacter cloacae, Cf-R, B+
[7] = strain #9 Enterobacter cloacae, Cf-R
[8] = strain #10 Escherichia coli, Ci-R
[9] = strain #11 Escherichia coli, Ci-R, AmpC
[10] = strain #15 Klebsiella pneumoniae
[11] = strain #16 Moraxella catarrhalis
[12] = strain #21 Providencia rettgeri
[13] = strain #22 Salmonella typhimurium
[14] = strain #25 Shigella dysenteriae
[15] = strain #28 Stenotrophomonas maltophilia
[16] = strain #29 Pseudomonas aeruginosa
[17] = strain #30 Pseudomonas aeruginosa
[18] = strain #31 Pseudomonas aeruginosa, Ofx-R
[19] = strain #32 Pseudomonas aeruginosa, Cf-R
[20] = strain #33 Pseudomonas aeruginosa, Ci-R
[21] = strain #34 Pseudomonas aeruginosa, Gen-R
[22] = strain #35 Pseudomonas aeruginosa, Ip-R
[23] = strain #36 Pseudomonas aeruginosa, Cf-R, Ci-R, Mp-R

Measured: MIC

C[C@@H](O)C1C(=O)N2C(C(=O)O)=C(CN3CC[C@H](C(=O)NS(N)(=O)=O)C3)[C@H](C)C12 (stereo partly drawn) [Compound 19]
≤ 0.008 µg/mL: [11]
8 µg/mL: [22]
0.25 µg/mL: strain #5 Citrobacter diversus | strain #6 Citrobacter freundii | [6] | [8] | [9] | strain #12 Escherichia coli | strain #13 Escherichia coli | strain #20 Proteus mirabilis | [13] | [14] | strain #26 Shigella sonnei | strain #27 Shigella flexneri | [15]
1 µg/mL: [4] | [5] | strain #19 Proteus vulgaris | [12] | strain #23 Serratia marcescens | strain #24 Serratia marcescens | [18]
4 µg/mL: strain #17 Morganella Morganii | [16] | [17] | [19] | [20] | [21]
32 µg/mL: [23]
0.5 µg/mL: [1] | [2] | [7] | strain #14 Klebsiella oxytoca | [10]
2 µg/mL: [3] | strain #18 Morganella Morganii

C[C@@H](O)C1C(=O)N2C(C(=O)O)=C(CN3CC[C@H](NC(=O)C(F)(F)F)C3)[C@H](C)C12 (stereo partly drawn) [Compound 37]
16 µg/mL: [22]
4 µg/mL: [2] | [4] | [18]
≤ 0.008 µg/mL: [11]
1 µg/mL: [7] | [10] | strain #19 Proteus vulgaris | [12] | strain #23 Serratia marcescens | [15]
32 µg/mL: [23]
2 µg/mL: [1] | [5] | strain #17 Morganella Morganii | strain #18 Morganella Morganii | strain #24 Serratia marcescens
8 µg/mL: [3] | [16] | [17] | [19] | [20] | [21]
0.25 µg/mL: strain #27 Shigella flexneri
0.5 µg/mL: strain #5 Citrobacter diversus | strain #6 Citrobacter freundii | [6] | [8] | [9] | strain #12 Escherichia coli | strain #13 Escherichia coli | strain #14 Klebsiella oxytoca | strain #20 Proteus mirabilis | [13] | [14] | strain #26 Shigella sonnei
